US7348425B2, “Inhibitors of HCV replication” (Bristol-Myers Squibb Company, priority 2004, dated 2008)
Where two headings read alike, the source gives them in different places.

Assays:
HCV replicon = HCV replicon luciferase assay; assay type: cell-based, Hepatitis C virus; conditions: luciferase method, read-out: EC50
Procedure, shortened: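 Replicon cells, some carrying a Renilla luciferase reporter, were incubated with titrated compound at 37 °C; Alamar blue measured cytotoxicity, followed by a kinetic FRET peptide read (340/490 nm) or Dual-Glo luciferase. Activity was normalized to untreated controls after subtracting background from high-dose protease inhibitor wells; EC50 was the concentration giving 50% signal reduction.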

[1] = molecular target: T1, HCV NS5B RdRp genotype 1b (Hepatitis C virus genotype 1b, UniProt Q9WMX2); assay: Standard HCV NS5B RdRp enzyme assay; assay type: biochemical; conditions: standard method
T1 construct: The protein was expressed with an 18 amino acid C-terminal truncation to enhance the solubility; made in house; host or cells: E. coli BL21 (DE3), pET21a
Protocol: HCVNS5B RdRp cloning, expression, and purification. The cDNA encoding the NS5B protein of HCV, genotype 1b, was cloned into the pET21a expression vector. The protein was expressed with an 18 amino acid C-terminal truncation to enhance the solubility. The E. coli competent cell line BL21 (DE3) was used for expression of the protein. Cultures were grown at 37° C. for ˜4 hours until the cultures reached an optical density of 2.0 at 600 nm. The cultures were cooled to 20° C. and induced with 1 mM IPTG. Fresh ampicillin was added to a final concentration of 50 μg/ml and the cells were grown overnight at 20° C.
Cell pellets (3 L) were lysed for purification to yield 15-24 mgs of purified NS5B. The lysis buffer consisted of 20 mM Tris-HCl, pH 7.4, 500 mM NaCl, 0.5% triton X-100, 1 mM DTT, 1 mM EDTA, 20% glycerol, 0.5 mg/ml lysozyme, 10 mM MgCl2, 15 ug/ml deoxyribonuclease I, and Complete TM protease inhibitor tablets (Roche). After addition of the lysis buffer, frozen cell pellets were resuspended using a tissue homogenizer. To reduce the viscosity of the sample, aliquots of the lysate were sonicated on ice using a microtip attached to a Branson sonicator. The sonicated lysate was centrifuged at 100,000×g for 1 hr at 4° C. and filtered through a 0.2 μm filter unit (Corning).
The protein was purified using three sequential chromatography steps: Heparin sepharose CL-6B, polyU sepharose 4B, and Hitrap SP sepharose (Pharmacia). The chromatography buffers were identical to the lysis buffer but contained no lysozyme, deoxyribonuclease I, MgCl2 or protease inhibitor and the NaCl concentration of the buffer was adjusted according to the requirements for charging the protein onto the column. Each column was eluted with a NaCl gradient which varied in length from 5-50 column volumes depending on the column type. After the final chromatography step, the resulting purity of the enzyme is >90% based on SDS-PAGE analysis. The enzyme was aliquoted and stored at −80° C.
Standard HCV NS5B RdRp enzyme assay. HCV RdRp genotype Ib assays were run in a final volume of 60 μl in 96 well plates (Costar 3912). The assay buffer is composed of 20 mM Hepes, pH 7.5, 2.5 mM KCl, 2.5 mM MgCl2, 1 mM DTT, 1.6 U RNAse inhibitor (Promega N2515), 0.1 mg/ml BSA (Promega R3961), and 2% glycerol. All compounds were serially diluted (3-fold) in DMSO and diluted further in water such that the final concentration of DMSO in the assay was 2%. HCV RdRp genotype 1b enzyme was used at a final concentration of 28 nM. A polyA template was used at 6 nM, and a biotinylated oligo-dT12 primer was used at 180 nM final concentration. Template was obtained commercially (Amersham 27-4110). Biotinylated primer was prepared by Sigma Genosys. ^3H-UTP was used at 0.6 μCi (0.29 μM total UTP). Reactions were initiated by the addition of enzyme, incubated at 30° C. for 60 min, and stopped by adding 25 μl of 50 mM EDTA containing SPA beads (4 μg/μl, Amersham RPNQ 0007). Plates were read on a Packard Top Count NXT after >1 hr incubation at room temperature.
The IC50 values for compounds were determined using seven different [I]. IC50 values were calculated from the inhibition using the formula y=A+((B−A)/(1+((C/x)^D))). FRET Assay Preparation. To perform the HCV FRET screening assay, 96-well cell culture plates were used. The FRET peptide (Anaspec, Inc.) (Taliani et al., Anal. Biochem. 240:60-67 (1996), hereby incorporated by reference in its entirety) contains a fluorescence donor, EDANS, near one end of the peptide and an acceptor, DABCYL, near the other end. The fluorescence of the peptide is quenched by […] resonance energy transfer (RET) between the donor and the acceptor, but as the NS3 protease cleaves the peptide the products are released from RET quenching and the fluorescence of the donor becomes apparent. […]

HCV = conditions: cited from earlier work

T1 sequence (Q9WMX2 2420-2992): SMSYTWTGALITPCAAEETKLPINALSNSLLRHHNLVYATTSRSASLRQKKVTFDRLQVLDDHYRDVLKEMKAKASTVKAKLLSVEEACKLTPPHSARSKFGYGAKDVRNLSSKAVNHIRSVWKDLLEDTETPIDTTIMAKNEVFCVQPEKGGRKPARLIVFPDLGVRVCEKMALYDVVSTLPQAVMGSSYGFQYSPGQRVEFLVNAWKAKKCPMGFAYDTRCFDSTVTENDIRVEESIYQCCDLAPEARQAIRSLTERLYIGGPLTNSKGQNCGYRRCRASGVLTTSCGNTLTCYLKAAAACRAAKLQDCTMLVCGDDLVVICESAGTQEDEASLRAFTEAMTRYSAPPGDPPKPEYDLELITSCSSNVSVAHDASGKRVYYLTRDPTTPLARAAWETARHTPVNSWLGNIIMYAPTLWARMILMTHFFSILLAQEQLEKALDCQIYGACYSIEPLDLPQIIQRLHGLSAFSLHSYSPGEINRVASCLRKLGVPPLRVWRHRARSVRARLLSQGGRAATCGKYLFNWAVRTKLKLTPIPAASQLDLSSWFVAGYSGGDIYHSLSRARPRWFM

Q: Which EC50 (HCV replicon; Hepatitis C virus) does the source give for `COC(=O)/C=C/c1ccc(NC(=O)C2(NC(=O)c3ccc4c(C5CCCCC5)c5n(c4c3)CC(=O)Nc3cccnc3-5)CCCC2)cc1` [drawing 98] here?
A: < 100 nM

Q: What about the IC50 [1] of the same compound?
A: > 1000 nM

Q: With `O=C(O)c1ccc2c(C3CCCCC3)c3n(c2c1)CC(C(=O)N1CCOCC1)Cc1ccccc1-3` (stereo not shown) [drawing 113] as the compound, how does the EC50 (HCV replicon) read?
A: 100 to 1000 nM

Q: And the IC50 [1]?
A: 100 to 1000 nM

Q: Which EC50 (HCV replicon) does the source give for `O=C(O)c1ccc2c(C3CCCCC3)c3n(c2c1)CC(C(=O)N1CCOCC1)Cc1ccccc1-3` (stereo not shown) [drawing 114] here?
A: 1000 to 10000 nM

Q: And the IC50 [1]?
A: > 1000 nM

Q: What does the source list for `O=C(O)c1ccc2c(C3CCCCC3)c3n(c2c1)CC(C(=O)N1CCOCC1)Cc1ccccc1-3` (stereo not shown) [drawing 115]?
A: EC50 (HCV replicon): 100 to 1000 nM; IC50 [1]: 100 to 1000 nM

Q: For `O=C(O)c1ccc2c(C3CCCCC3)c3n(c2c1)CC(C(=O)N1CCCCC1)Cc1ccccc1-3` (stereo not shown) [drawing 116], which EC50 (HCV replicon) is on record?
A: 100 to 1000 nM

Q: And the IC50 [1]?
A: 100 to 1000 nM

Q: For `O=C(O)c1ccc2c(C3CCCCC3)c3n(c2c1)CC(C(=O)N1CCCCC1)Cc1ccccc1-3` (stereo not shown) [drawing 117], which EC50 (HCV replicon) is on record?
A: 1000 to 10000 nM

Q: What about the IC50 [1] of the same compound?
A: > 1000 nM

Q: With `O=C(O)c1ccc2c(C3CCCCC3)c3n(c2c1)CC(C(=O)N1CCCCC1)Cc1ccccc1-3` (stereo not shown) [drawing 118] as the compound, how does the EC50 (HCV replicon) read?
A: 100 to 1000 nM

Q: And the IC50 [1]?
A: 100 to 1000 nM

Q: With `O=C(O)c1ccc2c(C3CCCCC3)c3n(c2c1)CC(C(=O)N1CCCC(O)C1)Cc1ccccc1-3` (stereo not shown) [drawing 119] as the compound, how does the EC50 (HCV replicon) read?
A: 100 to 1000 nM

Q: And the IC50 [1]?
A: 100 to 1000 nM

Q: What does the source list for `O=C(O)c1ccc2c(C3CCCCC3)c3n(c2c1)CC(C(=O)N1CCCC(O)C1)Cc1ccccc1-3` (stereo not shown) [drawing 120]?
A: EC50 (HCV replicon): 1000 to 10000 nM; IC50 [1]: > 1000 nM

Q: Which EC50 (HCV replicon) does the source give for `O=C(O)c1ccc2c(C3CCCCC3)c3n(c2c1)CC(C(=O)N1CCCC(O)C1)Cc1ccccc1-3` (stereo not shown) [drawing 121] here?
A: 100 to 1000 nM

Q: And the IC50 [1]?
A: 100 to 1000 nM

Q: Which “sustained efficacy, share of patients” value (HCV; HCV patients, combination therapy) does the source give for “alpha-interferon and ribavirin [reference compound]” here?
A: 40%

Q: Which “clinical results as monotherapy” value (HCV; compared with unmodified alpha-interferon) does the source give for pegylated alpha-interferon here?
A: superior to unmodified alpha-interferon
